Measurements published in ChEMBL document CHEMBL1137039, “Synthesis and structure-activity relationships of uracil derived human GnRH receptor antagonists: (R)-3-[2-(2-amino)phenethyl]-1-(2,6-difluorobenzyl)-6-methyluracils containing a substituted thiophene or thiazole at C-5” (Bioorg Med Chem Lett, 2004).

Legend:
[1] = In vitro intrinsic clearance after incubation with human liver microsomes (HLM); format: ADME, Microsome
[2] = molecular target: T1, Gonadotropin-releasing hormone receptor (Homo sapiens, UniProt P30968); experiment: Binding affinity towards cloned human Gonadotropin-releasing hormone receptor expressed in RBL cells was determined by using [125I]GnRH as radioligand; format: cell-based
T1 sequence (P30968 whole entry): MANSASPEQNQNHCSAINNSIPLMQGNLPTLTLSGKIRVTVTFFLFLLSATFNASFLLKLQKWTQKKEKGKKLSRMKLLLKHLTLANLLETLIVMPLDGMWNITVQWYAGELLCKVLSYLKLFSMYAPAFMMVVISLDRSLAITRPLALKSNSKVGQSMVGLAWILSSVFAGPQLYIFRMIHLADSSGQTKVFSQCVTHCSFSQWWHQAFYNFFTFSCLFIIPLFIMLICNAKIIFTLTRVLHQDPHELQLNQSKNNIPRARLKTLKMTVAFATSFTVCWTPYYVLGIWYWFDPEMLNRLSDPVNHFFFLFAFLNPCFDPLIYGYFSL

## COc1cccc(-c2c(C)n(Cc3c(F)cccc3F)c(=O)n(C[C@@H](C)N(C)Cc3ccccn3)c2=O)c1
[1]
  CLint scaled: 102 L/h/kg

## Cc1c(-c2csc(-c3ccc(Cl)cc3)n2)c(=O)n(C[C@H](N)c2ccccc2)c(=O)n1Cc1c(F)cccc1F
[1]
  CLint scaled: 2.76 L/h/kg
[2]
  Ki: 0.015 µM

## Cc1c(-c2ccc(Cl)cc2)c(=O)n(C[C@H](N)c2ccccc2)c(=O)n1Cc1c(F)cccc1F
[2]
  Ki: 0.014 µM

## Cc1c(-c2csc(Nc3ccccc3)n2)c(=O)n(C[C@H](N)c2ccccc2)c(=O)n1Cc1c(F)cccc1F
[2]
  Ki: 0.07 µM

## CCOC(=O)Nc1ccc(-c2nc(-c3c(C)n(Cc4c(F)cccc4F)c(=O)n(C[C@H](N)c4ccccc4)c3=O)cs2)cc1
[2]
  Ki: 0.007 µM

## Cc1c(-c2csc(-c3ccccc3Cl)n2)c(=O)n(C[C@H](N)c2ccccc2)c(=O)n1Cc1c(F)cccc1F
[2]
  Ki: 0.03 µM

## Cc1c(-c2cccs2)c(=O)n(C[C@H](N)c2ccccc2)c(=O)n1Cc1c(F)cccc1F
[2]
  Ki: 0.01 µM

## Cc1c(-c2csc(NCc3ccccc3)n2)c(=O)n(C[C@H](N)c2ccccc2)c(=O)n1Cc1c(F)cccc1F
[2]
  Ki: 0.035 µM

## Cc1ccc(Nc2nc(-c3c(C)n(Cc4c(F)cccc4F)c(=O)n(C[C@H](N)c4ccccc4)c3=O)cs2)cc1
[2]
  Ki: 0.049 µM

## Cc1c(-c2csc(-c3ccc(C(F)(F)F)cc3)n2)c(=O)n(C[C@H](N)c2ccccc2)c(=O)n1Cc1c(F)cccc1F
[2]
  Ki: 0.047 µM

## Cc1c(-c2csc(Nc3ccc([N+](=O)[O-])cc3)n2)c(=O)n(C[C@H](N)c2ccccc2)c(=O)n1Cc1c(F)cccc1F
[2]
  Ki: 0.16 µM

## Cc1c(-c2csc(N3CCOCC3)n2)c(=O)n(C[C@H](N)c2ccccc2)c(=O)n1Cc1c(F)cccc1F
[2]
  Ki: 1.5 µM

## Cc1ccc(Nc2nc(-c3c(C)n(Cc4c(F)cccc4F)c(=O)n(C[C@H](N)c4ccccc4)c3=O)cs2)c(C)c1
[2]
  Ki: 0.13 µM

## Cc1ccccc1Nc1nc(-c2c(C)n(Cc3c(F)cccc3F)c(=O)n(C[C@H](N)c3ccccc3)c2=O)cs1
[2]
  Ki: 0.21 µM

## Cc1c(-c2csc(-c3cccc(C(F)(F)F)c3)n2)c(=O)n(C[C@H](N)c2ccccc2)c(=O)n1Cc1c(F)cccc1F
[2]
  Ki: 0.15 µM

## Cc1nc(-c2c(C)n(Cc3c(F)cccc3F)c(=O)n(C[C@H](N)c3ccccc3)c2=O)cs1
[2]
  Ki: 0.12 µM

## Cc1ccc(-c2nc(-c3c(C)n(Cc4c(F)cccc4F)c(=O)n(C[C@H](N)c4ccccc4)c3=O)cs2)cc1
[1]
  CLint scaled: 2.16 L/h/kg
[2]
  Ki: 0.018 µM

## Cc1c(-c2ccc(Cl)s2)c(=O)n(C[C@H](N)c2ccccc2)c(=O)n1Cc1c(F)cccc1F
[2]
  Ki: 0.002 µM

## COc1ccc(Nc2nc(-c3c(C)n(Cc4c(F)cccc4F)c(=O)n(C[C@H](N)c4ccccc4)c3=O)cs2)cc1OC
[2]
  Ki: 0.033 µM

## Cc1c(-c2csc(-c3ccc4c(c3)CCO4)n2)c(=O)n(C[C@H](N)c2ccccc2)c(=O)n1Cc1c(F)cccc1F
[2]
  Ki: 0.02 µM

## Cc1c(-c2csc(Cc3ccccc3)n2)c(=O)n(C[C@H](N)c2ccccc2)c(=O)n1Cc1c(F)cccc1F
[2]
  Ki: 0.009 µM

## COc1ccc(Nc2nc(-c3c(C)n(Cc4c(F)cccc4F)c(=O)n(C[C@H](N)c4ccccc4)c3=O)cs2)cc1
[2]
  Ki: 0.042 µM

## Cc1ccc(-c2c(C)n(Cc3c(F)cccc3F)c(=O)n(C[C@H](N)c3ccccc3)c2=O)s1
[2]
  Ki: 0.003 µM

## CCNc1nc(-c2c(C)n(Cc3c(F)cccc3F)c(=O)n(C[C@H](N)c3ccccc3)c2=O)cs1
[2]
  Ki: 0.27 µM

## COc1ccccc1Nc1nc(-c2c(C)n(Cc3c(F)cccc3F)c(=O)n(C[C@H](N)c3ccccc3)c2=O)cs1
[2]
  Ki: 0.13 µM

## Cc1c(-c2csc(N)n2)c(=O)n(C[C@H](N)c2ccccc2)c(=O)n1Cc1c(F)cccc1F
[2]
  Ki: 3 µM

## Cc1c(-c2csc(-c3ccc(C(C)(C)C)cc3)n2)c(=O)n(C[C@H](N)c2ccccc2)c(=O)n1Cc1c(F)cccc1F
[2]
  Ki: 0.5 µM

## Cc1c(-c2csc(N(C)c3ccccc3)n2)c(=O)n(C[C@H](N)c2ccccc2)c(=O)n1Cc1c(F)cccc1F
[2]
  Ki: 0.034 µM

## Cc1ccc(-c2nc(-c3c(C)n(Cc4c(F)cccc4F)c(=O)n(C[C@H](N)c4ccccc4)c3=O)cs2)cc1F
[2]
  Ki: 0.049 µM

## Cc1c(-c2csc(-c3ccccc3)n2)c(=O)n(C[C@H](N)c2ccccc2)c(=O)n1Cc1c(F)cccc1F
[2]
  Ki: 0.026 µM

## Cc1c(-c2csc(-c3ccc(F)cc3)n2)c(=O)n(C[C@H](N)c2ccccc2)c(=O)n1Cc1c(F)cccc1F
[2]
  Ki: 0.042 µM
